Measured values from ChEMBL document CHEMBL1201862, “PubChem BioAssay data set” (2004).
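Step 1: Grow cells in 96-well plates. Step 2: Expose to compound for 48 hours at 5 concentrations. Step 3: Interpolate endpoints linearly; if unreached, use highest concentration. GI50 marks 50% less growth.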 Active and inactive are the calls of the source. Rule as the data show it: active = GI50 up to about 1.1 µM and inactive = higher.

Columns and labels:
Test in all cases: inhibition of tumour cell growth, NCI panel, 48 h
OVCAR-4 = test system: OVCAR-4
SF-539 = test system: SF-539
Malme-3M = test system: Malme-3M
NCI-H460 = test system: NCI-H460
K562 = test system: K562
786-0 = test system: 786-0
UACC-62 = test system: UACC-62
SNB-19 = test system: SNB-19
UO-31 = test system: UO-31
SF-268 = test system: SF-268
EKVX = test system: EKVX
SN12C = test system: SN12C
KM12 = test system: KM12
A549 = test system: A549
RPMI-8226 = test system: RPMI-8226
HCT-116 = test system: HCT-116
SF-295 = test system: SF-295

Row | Compound | GI50 (OVCAR-4) | GI50 (SF-539) | GI50 (Malme-3M) | GI50 (NCI-H460) | GI50 (K562) | GI50 (786-0) | GI50 (UACC-62) | GI50 (SNB-19) | GI50 (UO-31) | GI50 (SF-268) | GI50 (EKVX) | GI50 (SN12C) | GI50 (KM12) | GI50 (A549) | GI50 (RPMI-8226) | GI50 (HCT-116) | GI50 (SF-295)
1 | O=Cc1ccccc1OCCOc1cc(OCCOc2ccccc2C=O)c(OCCOc2ccccc2C=O)cc1OCCOc1ccccc1C=O | 39.9 µM (inactive) | > 44.5 µM (inactive) | > 100 µM (inactive) | > 67.9 µM (inactive) | 50.4 µM (inactive) | 24.2 µM (inactive) | > 100 µM (inactive) | > 31.6 µM (inactive) | > 52.8 µM (inactive) | 52.1 µM (inactive) | 32.1 µM (inactive) | > 100 µM (inactive) | > 100 µM (inactive) | > 100 µM (inactive) | 90.6 µM (inactive) | 21.9 µM (inactive) | –
2 | CCO/C([O-])=C(/C=O)[n+]1c(C)n(C)c2ccccc21 | > 100 µM (inactive) | > 100 µM (inactive) | > 100 µM (inactive) | > 100 µM (inactive) | > 100 µM (inactive) | > 100 µM (inactive) | > 100 µM (inactive) | > 100 µM (inactive) | > 100 µM (inactive) | > 100 µM (inactive) | > 100 µM (inactive) | – | > 100 µM (inactive) | > 100 µM (inactive) | > 100 µM (inactive) | > 100 µM (inactive) | > 100 µM (inactive)
3 | Cc1nc(C(N)=S)sc1C(=O)CC(=O)C(=O)Nc1c(C(C)C)cccc1C(C)C | > 100 µM (inactive) | 44.4 µM (inactive) | 39.2 µM (inactive) | 40.5 µM (inactive) | 24.3 µM (inactive) | 50.4 µM (inactive) | 42.5 µM (inactive) | 45.8 µM (inactive) | 39.3 µM (inactive) | > 100 µM (inactive) | > 100 µM (inactive) | 56.8 µM (inactive) | 40.7 µM (inactive) | 35.8 µM (inactive) | 55.8 µM (inactive) | 38.7 µM (inactive) | 29.2 µM (inactive)
4 | CN(C)CCNC(=O)c1cc([N+](=O)[O-])cc2ccc(-c3ccccc3)nc12 | 5.55 µM (inactive) | 7.66 µM (inactive) | 6.59 µM (inactive) | 3.8 µM (inactive) | 17.1 µM (inactive) | 16.4 µM (inactive) | 4.62 µM (inactive) | 8.02 µM (inactive) | 2.9 µM (inactive) | 7.91 µM (inactive) | 24.7 µM (inactive) | 10.4 µM (inactive) | 7.94 µM (inactive) | 7.64 µM (inactive) | 17.7 µM (inactive) | 3.23 µM (inactive) | 8.79 µM (inactive)
5 | O=C(CC1(O)C(=O)Nc2ccccc21)c1ccc(O)cc1O (stereo not drawn) | > 100 µM (inactive) | > 100 µM (inactive) | > 100 µM (inactive) | > 100 µM (inactive) | > 100 µM (inactive) | > 100 µM (inactive) | > 100 µM (inactive) | > 100 µM (inactive) | > 100 µM (inactive) | > 100 µM (inactive) | > 100 µM (inactive) | > 100 µM (inactive) | – | > 100 µM (inactive) | > 100 µM (inactive) | > 100 µM (inactive) | > 100 µM (inactive)
6 | CC(=O)NC(CCCCN(Cc1ccccc1)C(=O)NCCCl)C(=O)NCc1ccccc1 (stereo not drawn) | > 100 µM (inactive) | > 100 µM (inactive) | > 100 µM (inactive) | > 100 µM (inactive) | > 100 µM (inactive) | > 100 µM (inactive) | > 100 µM (inactive) | > 100 µM (inactive) | > 100 µM (inactive) | > 100 µM (inactive) | > 100 µM (inactive) | > 100 µM (inactive) | > 100 µM (inactive) | > 100 µM (inactive) | > 100 µM (inactive) | > 100 µM (inactive) | > 100 µM (inactive)
7 | CCOC(=O)CN1C(=O)c2cccc3cc([N+](=O)[O-])cc(c23)C1=O | 1.85 µM (inactive) | 3.57 µM (inactive) | 2.45 µM (inactive) | 4.89 µM (inactive) | 0.459 µM (active) | 13.4 µM (inactive) | 2.4 µM (inactive) | 18.2 µM (inactive) | 14 µM (inactive) | 3.37 µM (inactive) | 15.2 µM (inactive) | 4.93 µM (inactive) | 2.52 µM (inactive) | 13.1 µM (inactive) | 1.81 µM (inactive) | 1.63 µM (inactive) | –
8 | COC(=O)/C(=N/NC(N)=O)C(C(=O)OC)C(=O)C(=O)Nc1ccc(Cl)cc1 (stereo not drawn) | > 100 µM (inactive) | > 100 µM (inactive) | > 100 µM (inactive) | > 71.3 µM (inactive) | > 43.6 µM (inactive) | > 100 µM (inactive) | > 100 µM (inactive) | > 100 µM (inactive) | > 100 µM (inactive) | – | > 100 µM (inactive) | > 100 µM (inactive) | > 100 µM (inactive) | > 100 µM (inactive) | > 100 µM (inactive) | > 70.6 µM (inactive) | > 100 µM (inactive)
9 | NC1CCCCC1.O=P(O)(O)C1(P(=O)(O)O)CC1 | > 100 µM (inactive) | > 100 µM (inactive) | > 100 µM (inactive) | > 100 µM (inactive) | > 100 µM (inactive) | > 100 µM (inactive) | > 100 µM (inactive) | > 100 µM (inactive) | > 100 µM (inactive) | > 100 µM (inactive) | > 100 µM (inactive) | > 100 µM (inactive) | > 100 µM (inactive) | > 100 µM (inactive) | > 100 µM (inactive) | > 100 µM (inactive) | > 100 µM (inactive)
10 | O=C(Nc1cccc(Cl)c1)C(=O)C(C(=O)c1ccc2ccccc2c1)C1OC(=O)c2ccccc21 (stereo not drawn) | 8.41 µM (inactive) | 7.8 µM (inactive) | 13.1 µM (inactive) | 8.75 µM (inactive) | 16.1 µM (inactive) | 10.6 µM (inactive) | 15.3 µM (inactive) | 5.3 µM (inactive) | 14.1 µM (inactive) | 7.29 µM (inactive) | 32.7 µM (inactive) | 18.6 µM (inactive) | 22.6 µM (inactive) | 30 µM (inactive) | 7.67 µM (inactive) | 12.6 µM (inactive) | –
11 | CCCCCCCCCC(=O)OCC1OC(n2cc(F)c(=O)[nH]c2=O)C(N)C(OC(=O)CCCCCCCCC)C1O (stereo not drawn) | 15.8 µM (inactive) | 18.4 µM (inactive) | 16.9 µM (inactive) | 19.4 µM (inactive) | 16.7 µM (inactive) | 18.4 µM (inactive) | 17.9 µM (inactive) | 17.4 µM (inactive) | 21.6 µM (inactive) | 20.2 µM (inactive) | 18.2 µM (inactive) | 16.9 µM (inactive) | 19.1 µM (inactive) | 18 µM (inactive) | 21.5 µM (inactive) | 18.2 µM (inactive) | 17.8 µM (inactive)
12 | CC(=O)NC1=C(C)C(=O)c2c(nc3n2CCC3O)C1=N (stereo not drawn) | 4.09 µM (inactive) | 4.15 µM (inactive) | 6.41 µM (inactive) | 22 µM (inactive) | 8.67 µM (inactive) | 18.6 µM (inactive) | 4.71 µM (inactive) | 25.1 µM (inactive) | 22.9 µM (inactive) | 10.3 µM (inactive) | 21.1 µM (inactive) | 6.19 µM (inactive) | 18.5 µM (inactive) | 30.8 µM (inactive) | > 100 µM (inactive) | 2.39 µM (inactive) | 19.3 µM (inactive)
